Legend:
Assay in all cases: relative viability (nuclei count vs DMSO), 5 days (fraction); higher = more cells survive
Ricolinostat + Lapatinib = compound: O=C(CCCCCCNC(=O)c1cnc(N(c2ccccc2)c2ccccc2)nc1)NO [Ricolinostat] + CS(=O)(=O)CCNCc1ccc(-c2ccc3ncnc(Nc4ccc(OCc5cccc(F)c5)c(Cl)c4)c3c2)o1 [Lapatinib] (partner 2 µM)
Method in brief: (§1)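 Lung cancer cell lines were seeded in 1536-well plates and dosed by pin tool the next day, with either a single drug or a fixed anchor-drug dose combined with five library-drug doses (not always all listed) spaced in √10 steps. Five days later, one step fixed the cells and stained their nuclei (final 0.05% Triton X-100, 1% formaldehyde, 1 ug/ml Hoechst), and nuclei were counted on 4× images. Relative viability is the nuclei count in treated wells divided by the count in vehicle wells, and each value is the median of duplicate plates.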

Ricolinostat + Foretinib = compound: O=C(CCCCCCNC(=O)c1cnc(N(c2ccccc2)c2ccccc2)nc1)NO [Ricolinostat] + COc1cc2c(Oc3ccc(NC(=O)C4(C(=O)Nc5ccc(F)cc5)CC4)cc3F)ccnc2cc1OCCCN1CCOCC1 [Foretinib] (partner 0.25 µM)
Method in brief: as §1

[1] = compound: O=C(CCCCCCNC(=O)c1cnc(N(c2ccccc2)c2ccccc2)nc1)NO [Ricolinostat] + C[C@@H](Oc1cc(-c2cnn(C3CCNCC3)c2)cnc1N)c1c(Cl)ccc(F)c1Cl [Crizotinib] (partner 1 µM)
Method in brief: as §1

TGX 221 + Bortezomib = compound: CC1=CN2C(=O)C=C(N=C2C(=C1)C(C)NC3=CC=CC=C3)N4CCOCC4 [TGX 221] + CC(C)C[C@H](NC(=O)[C@H](Cc1ccccc1)NC(=O)c1cnccn1)B(O)O [Bortezomib] (partner 0.002 µM)
Method in brief: as §1

Cell Line	relative viability (Ricolinostat + Lapatinib; first compound 0.08 µM)	relative viability (Ricolinostat + Lapatinib; first compound 0.253 µM)	relative viability (Ricolinostat + Lapatinib; first compound 0.8 µM)	relative viability (Ricolinostat + Lapatinib; first compound 2.53 µM)	relative viability (Ricolinostat + Foretinib; first compound 0.08 µM)	relative viability (Ricolinostat + Foretinib; first compound 0.253 µM)	relative viability (Ricolinostat + Foretinib; first compound 0.8 µM)	relative viability (Ricolinostat + Foretinib; first compound 2.53 µM)	relative viability ([1]; first compound 0.08 µM)	relative viability ([1]; first compound 0.253 µM)	relative viability ([1]; first compound 0.8 µM)	relative viability ([1]; first compound 2.53 µM)	relative viability (TGX 221 + Bortezomib; first compound 0.08 µM)	relative viability (TGX 221 + Bortezomib; first compound 0.253 µM)	relative viability (TGX 221 + Bortezomib; first compound 0.8 µM)	relative viability (TGX 221 + Bortezomib; first compound 2.53 µM)	relative viability (TGX 221 + Bortezomib; first compound 8 µM)
Calu-6	0.926	1.03	1.01	0.785	0.923	0.93	0.848	0.83	0.712	0.766	0.638	0.51	1.02	0.973	1.22	1	0.896
ChaGo-K-1					0.895	0.912	0.861	0.86	1.13	1.08	1.05	0.997	0.866	1.02	1.02	0.984	1.16
EBC-1	0.206	0.207	0.221	0.215	0.0899	0.101	0.0995	0.0994	0.186	0.163	0.164	0.224	0.523	0.51	0.619	0.4	0.408
EKVX		0.205	0.205	0.19	0.845	0.846		0.725		0.762	0.958	1.01	1.02	1.11	0.939	0.985	0.986
EMC-BAC-2	0.784	0.895	0.894	0.676	0.905	1.03	0.942	0.851	0.697	0.698	0.695	0.681	1.02	1.02	1.08	1.03	1.07
EPLC-272H		0.978	1.03	0.884	0.632	0.704	0.442	0.354		0.936	0.82	0.622	0.966	0.879	0.893		1
H3255	0.189	0.3	0.2	0.207	0.626	0.962	0.685	0.589	0.822	0.823	0.804	0.749	0.685	0.732	0.792	0.776	0.708
HARA	0.503	0.676	0.659	0.411	0.968	0.901	0.767	0.646	0.925	0.948	0.926	0.712	1.13	1.07	1.05	1.09	1.2
